Assay results: patent publication US11207331B2, “Agents, compositions and methods for enhancing neurological function” (University of Southern California, priority 2007, dated 2021)

Columns and labels:
hippocampal neural cells = experiment: Mitotic appearance (doublet cell body) of cultured hippocampal neural cells; format: cell-based, rat
Method: Hippocampal neural cells were obtained from an embryonic day 18 rat hippocampus. The samples contained approximately 12,000 neurons/sample. The sample was 95% neuronal. No selection for neuronal subtypes was conducted. Hippocampal neurons were treated with 3α-hydroxy-5α-pregnan-20-one (THP). 3α-hydroxy-5α-pregnan-20-one (THP) was added to two samples containing hippocampal neural cells at a concentration of either 10 nanomolar (nM) and 100 nanomolar (nM). The cells were incubated for 24 hrs at 37° C. Neurons were grown in a defined medium, Neurobasal+B27 supplement in the absence (control) or presence of THP or other test molecule (experimental). The samples with added THP were compared with a control sample containing only hippocampal neural cells. Changes in the mitotic appearance of the neural cells were observed. A mitotic appearance of a particular neural cell is defined as a doublet form in the cell body of the neural cell. The doublet form is indicative of a neural cell undergoing mitosis.
The experiment described above was repeated only THP was added to three samples containing hippocampal neural cells at a concentration of 100 nanomolar (nM), 250 nM and 500 nM. The samples with added THP were compared with a control sample containing only hippocampal neural cells. […] Data are expressed as percent of mean+SEM,**p<0.01, ***p<. 001.

[1] = tested on: Beta amyloid binding alcohol dehydrogenase (ABAD); experiment: ABAD expression (Western blot, antibody ERAB); format: in vivo, mouse
Method: Further studies were conducted using a dosing regime of once a week for six months administered subcutaneously. Three and six months old 3×Tg-AD and age-matched non-Tg mice were chosen for the experiments, since AD pathology (Aβ) starts development at 3-month and abundant accumulation at 6-months. Allopregnanolone was subcutaneously (s.c.) administrated with 10 mg/kg once per week for 6 months. For neurogenesis and neurosurvival study, BrdU, IdU and CIdU were intraperitoneal (i.p.) injected at the first 5 days, mid 5 days and 5 days before sacrifice during 6-month treatment. After 6 months of allopregnanolone treatment, mice, at 9- and 12-month old, were sacrificed.
Beta amyloid binding alcohol dehydrogenase (ABAD) was probed with antibody ERAB (1:500, Abcam). […] Immunofluorescent staining using goat polyclonal anti-ERAB (Santa Cruz) confirmed the results obtained by Western Blot analysis. The concentration of ABAD immunoactive cells is less in THP-treated brains than in the brains treated with the vehicle.

With CC(=O)[C@H]1CC[C@H]2[C@@H]3CC[C@H]4C[C@H](O)CC[C@]4(C)[C@H]3CC[C@]12C [THP, 3α-hydroxy-5α-pregnan-20-one] the “fold increase in the mitotic phenotype of the neural cells vs control” value (hippocampal neural cells; 10 nM or 100 nM THP, 24 hrs) was roughly 2 fold, the “concentration with greatest induction of the mitotic phenotype” value (hippocampal neural cells; 100, 250, 500 nM tested) was 500 nm and the “fold increase in the mitotic phenotype of the neural cells vs control” value (hippocampal neural cells; 100, 250 and 500 nM THP) was 2-3 fold. For the same molecule, the “decrease in ABAD level relative to vehicle” value ([1]; 9-month 3×Tg mice) was 30±4% and the “decrease in ABAD level relative to vehicle” value ([1]; 12-month 3×Tg mice) was 20±7%.
